The text below walks through data of US10793614B2, “Antagonists of fish reproduction” (Yissum Research Development Company of the Hebrew …, priority 2014, dated 2020).

The subject of test [1] is Tilapia tac3ra and tac3rb. As to the kind of experiment: CRE-luciferase reporter assay in COS-7 cells transfected with tilapia tac3 receptor. The test is classed as cell-based. Particulars: for effect of antagonist alone on luciferase activity (CRE-Luc): no ligand; for inhibition of luciferase activity, antagonist with native ligands: different concentrations added concomitantly with 0.1 nM NKB or NKF. From the text: There are two signal transduction pathways, one is relayed trough cAMP/PKA (protein kinase A), and the second is trough Ca2+/PKC. The PKA pathway is activated by CRE (cAMP response element) and the PKC through SRE ([…] response element).
In order to differentiate between the PKC and PKA signal transduction pathways, a sensitive luciferase (LUC) reporter gene assay was utilized by using the LUC transcriptionally regulated by a serum response element (SRE; Invitrogen) or cyclic AMP (cAMP) response element (CRE; Invitrogen). Tilapia tac3ra and tac3rb (GenBank accession numbers KF471674 and KF471675, respectively) or zebrafish tac3ra and tac3rb (JF317292, and JF317293, respectively) were cloned in pcDNA3.1 expression vector (Zeo-; Invitrogen) under the control of the CMV promoter.
Transient transfection, cell procedures and stimulation protocols were generally according to (Levavi-Sivan et al., 2005, Mol Cell Endocrinol 236:17-30; Biran et al., 2008, ibid, Biran et al., 2012, ibid, Biran et al., 2014 ibid). Briefly, COS-7 cells were grown in DMEM supplemented with 10% FBS, 1% glutamine, 100 U/ml penicillin, and […] streptomycin (Biological Industries) under 5% CO2 until confluent. Cotransfection of either pc-tac3ra, pc-tac3rb (at 3 μg/plate), a reporter plasmid (at 2 μg/plate), and pCM.
Transfection was carried out with FuGENE 6.0 reagent (Roche). The cells were serum starved for 36 h, stimulated with vehicle or various concentrations of either human NKB, tilapia NKB, tilapia NKF, zebrafish NKBa, NKBb or zebrafish NKF for 6 h, and then harvested and analyzed.
Lysates prepared from the harvested cells were assayed for both luciferase activity and β-galactosidase activity, which was used as an internal standard to normalize the luciferase activity directed by the test plasmid, as described previously. Transfection experiments were performed in triplicate with three independently isolated sets.
The concentrations of ligand used were from 1 nM to 1 μM. Treatments were performed in quadruplicate in three independent experiments.
Each antagonist was added at different concentrations with a constant concentration of the wild-type NKB or NKF, at a dose of the ligand (10^−8M) that gave a response close to the ED50. The results were analyzed by Prism software, according to a non-linear regression one-site competition curve.
The effect of NKB antagonists was tested in tilapia when each antagonist was added at different concentration concomitantly with NKB at 10^−8 M ([…]). Tilapia NKB increased the luciferase activity by 1.8 fold. The various antagonists reduced this response by approximately 60% (FIG. 1A). Similar results were obtained using the SRE response (FIG. 1B). […]
On the technique in general: In a reporter assay the amount or activity of a reporter protein is the signal.

Test [2] deals with gonadotropin release in tilapia. As to the kind of experiment: In vivo gonadotropin (FSH, LH) release in sexually mature tilapia females. Particulars: 10, 100 or 500 μg/kg body weight injected; 1, 2, 4, 8 h; starting 1 hour after injection. As to the method:
SB222200 was further tested in vivo for its NKB antagonistic activity on gonadotropin release in tilapia. Sexually mature tilapia females (0.62±0.22%; n=10/treatment) were injected with different doses of the NKB non-peptide antagonist SB222200 (10, 100 or 500 μg/kg body weight) at time 0. 1, 2, 4 and 8 hours after the injection the fish were bled from their caudal vasculature. The levels of the gonadotropins FSH and LH were determined using specific ELISA according to Aizen et al., 2007 (Aizen et al., 2007, Gen Comp Endocrinol, vol. 153, pp 323-332).

Test [3] deals with Adult male Tilapia. As to the kind of experiment: In vivo ip injection of adult male tilapia: testis histology, plasma 11KT. As to conditions: versus control; for increase of plasma 11KT levels: 500 μg/kg BW ip every 48 h, 0 to 12 days. As to the method:
Adult male Tilapia (BW 90 g) were injected ip with saline and 25% DMSO, SB2222000, or the NKB antagonists Ant-4 (500 μg/kg BW every 48 h for 2 weeks, […]). The fish were bled from the caudal blood vessels into heparinized syringes every 2 days after injection. At days 7 and 14 five fish from each group were bled, striped for sperm volume and gonads were taken for Histology. Plasma was analyzed for LH, FSH and 11KT. Blood samples were collected from the caudal vasculature and centrifuged (3000 rpm for 20 minutes at 4° C.) to obtain plasma samples, which were stored at −20° C. until assayed, ELISAs were performed according to (Aizen et al., 2007, Gen Comp Endocrinol, vol. 153, pp 323-332) for FSH and LH and according to Hurvitz et al., 2005 (Gen Comp Endocrinol 140:61-73) for 11KT 1-ketotestosterone, the main androgen in fish which is involved in spermatogenesis). FIG. 6 represents histological observations of gonads from testes of treated fish versus control fish. Fish testes are organized in cysts. […] From right to left: semen from fish injected with SB222200; semen from control fish; semen from fish injected with NKB-antagonist #4. 11KT is the main androgen in fish and is involved in spermatogenesis.

Test [4] concerns Adult male Tilapia. Description: In vivo growth of injected adult male tilapia. Particulars: 500 μg/kg BW ip every 48 h for 2 weeks; day 21, seven days after end of treatment. As to the method:
Adult male tilapia (BW 60 g) were injected ip with saline and 25% DMSO, SB2222000, or NKB antagonists Ant-6 (500 μg/kg BW every 48 h for 2 weeks, n=25 fish per group). Fish were weighed every 7 days.

Test [5] deals with Salmon tac3 receptor. As to the kind of experiment: CRE-Luc reporter assay in COS-7 cells transfected with salmon tac3r. As to conditions: with wild-type NKB at 10^-8 M. The test is classed as cell-based. The method, then:
Similar to the in-vitro experiments performed in Example 2 in Tilapia and Zebrafish, the inhibition of NKB activity was tested in Salmon fish. Salmon tac3 receptor was cloned in pcDNA3.1 expression vector (Zeo-; Invitrogen) under the control of the CMV promoter. Transfection was carried out with FuGENE 6.0 reagent (Roche). The cells were serum starved for 36 h, stimulated with vehicle or various concentrations of either tilapia NKB for 6 h, and then harvested and analyzed. Lysates prepared from the harvested cells were assayed for both luciferase activity and β-galactosidase activity, which was used as an internal standard to normalize the luciferase activity directed by the test plasmid. Transfection experiments were performed in triplicate with three independently isolated sets. The concentrations of ligand used were from 1 nM to 1 μM. Treatments were performed in quadruplicate in three independent experiments. Each antagonist (NKB-ant 4 and NKB-ant 6) was added at different concentrations with a constant concentration of the wild-type NKB (10^−8M) that gave a response close to the ED50. The results were analyzed by Prism software, according to a non-linear regression one-site competition curve. When salmon tac3 was transfected, NKB increased the luciferase activity by 1.8 fold.

Numbered stars: 1 amine (or outer) side, 2 acyl side, 3 side chain; on linkers, the order of the positions; unused ones are H or OH. Square brackets hold non-standard residues; d marks the D form. Suc = O=C(CCC(=O)[*:2])[*:1]; NMeV = CN[C@H](C(=O)O)C(C)C; βAla = NCCC(=O)O

`CC[C@H](NC(=O)c1c(C)c(-c2ccccc2)nc2ccccc12)c1ccccc1` [SB222200, (S)-(2)-N-(a-ethylbenzyl)-3-methyl-2-phenylquinoline-4-carboxamide]: in test [1], the “effect of antagonist alone on luciferase activity (CRE-Luc)” value is reported as “no effect” and the “inhibition of luciferase activity, antagonist with native ligands” value is “typical inhibition curve”. Also, in test [2], the FSH levels entry is recorded as “significant gradual decline” and the LH levels entry is “significant gradual decline”. Moreover, the “increase of plasma 11KT levels” value in test [3] is “significantly inhibited”. Also, in test [4], the “growth (body weight)” value is listed as “significant growth”.

For “Succ-Asp-Ile-D-Trp-N(Me)Val-βAla-Leu-Met-NH2 (Suc-DI[dW][NMeV][βAla]LM-NH2; SMILES CC[C@H](C)[C@H](NC(=O)[C@H](CC(=O)O)NC(=O)CCC(=O)O)C(=O)N[C@H](Cc1c[nH]c2ccccc12)C(=O)N(C)[C@H](C(=O)NCCC(=O)N[C@@H](CC(C)C)C(=O)N[C@@H](CCSC)C(N)=O)C(C)C) [Ant-4]”, the “increase of plasma 11KT levels” value in test [3] was “significantly inhibited”. Moreover, the “histological observations of testes” value in test [3] (500 μg/kg BW ip every 48 h for 2 weeks) is recorded as “more partially empty cysts with mature spermatozoa”. In test [5], the “reduction of the NKB luciferase response by antagonist” value was “approximately 60%”.

For `CC(=O)N(C)C1(c2ccccc2)CCN(CCCC2(c3ccc(Cl)c(Cl)c3)CCCN(C(=O)c3ccccc3)C2)CC1` (stereo in doubt) [Osanetant (SR-142,801), (S)-(1)-N-{{3-[1-benzoyl-3-(3,4-dichlorophenyl)piperidin-3-yl]prop-1-yl}-4-phenylpiperidin-4-yl}-N-methyl acetamide], in test [1], the “effect of antagonist alone on luciferase activity (CRE-Luc)” value is on record as “no effect” and the “inhibition of luciferase activity, antagonist with native ligands” value is on record as “typical inhibition curve”.
